{"source": "patent US20060063774A1", "about": "“Phosphodiesterase inhibitor compounds and nitric oxide donors” (priority 2004, published 2006)", "test_system": "human corpus cavernosum tissue", "assay": "In vitro comparative relaxation responses in phenylephrine-contracted human corpus cavernosum tissue strips (organ chamber, isometric tension)", "type": "cell-based", "conditions": "10 μM and 30 μM, cumulative additions; tissue contracted with phenylephrine 7×10^−7 M; −100% = tone after papaverine 10^−4 M; comparator equimolar dipyridamole; FIG. 40", "description": "FIG. 40 Graph of comparative in vitro relaxation effects of dipyridamole and Example 1 in phenylephrine induced contacted human corpus cavernosum tissue.\nHuman corpus cavernosum tissue biopsies were obtained at the time of penile prosthesis implantation from impotent men. The tissue was maintained in a chilled Krebs-bicarbonate solution prior to assay. The tissue was cut into strips of 0.3×0.3×1 cm and suspended in organ chambers for isometric tension measurement. Tissues were incrementally stretched until optimal isometrtic tension for contraction was obtained. Once this was achieved, the tissues were contracted with phenylephine (7×10^−7 M) and once a stable contraction was achieved, the tissues were exposed to either dipyridamole or Example 1 (10^−6 to 3×10^−5 M) by cumulative additions to the chamber. At the end of the experiment papaverine (10^−4 M) is added to obtain maximal relaxation. […] Data are expressed as the percent loss in tone from the phenylephrine-induced contraction (0%=phenylephrine contraction; −100%=tone after the administration of papaverine).", "data": [{"smiles": "CC(C)(CC(=O)OCCN(CCOC(=O)CC(C)(C)SN=O)c1nc(N2CCCCC2)c2nc(N(CCOC(=O)CC(C)(C)SN=O)CCOC(=O)CC(C)(C)SN=O)nc(N3CCCCC3)c2n1)SN=O", "note": "[Example 1, 2,6-bis(diethyl(3-methyl-3(nitrosothiol)butyric acid ester)amino)-4,8-dipiperidinopyrimido-[5,4-d]-pyrimidine]", "values": [{"measurement": "relaxation of the phenylephrine-induced contraction (percent loss in tone), compared with dipyridamole", "result": "more efficacious in relaxing the phenylephrine-induced contaction than is an equimolar dose of the phosphodiesterase inhibitor dipyridamole"}]}]}
